assay: Displacement of [3H-20]-phorbol-12-13-dibutyrate from protein kinase C (alpha, beta, gamma) of mouse brain; assay type: tissue-based

Row | Ki [µM] | SMILES
1 | 2.5 | CCCCCCCCCCCCCC(=O)O[C@@H]1CC(=O)O[C@H]1CO
2 | 0.6 | CCCCCCCCCCCCC/C=C1/C(=O)O[C@@H](CO)[C@@H]1OC(C)=O
3 | 2.8 | CCCCCCCCCCCCCC(=O)O[C@@H]1CCC(=O)O[C@H]1CO
4 | 0.2 | CCCCCCCCCCCCC/C=C1\C(=O)O[C@@H](CO)[C@@H]1OC(C)=O

Source: ChEMBL document CHEMBL1127998, “Conformationally constrained analogues of diacylglycerol. 9.1 the effect of side-chain orientation on the protein kinase C (PK-C) binding affinity of -lactones” (Bioorg Med Chem Lett, 1994)
